This test has as its target Recombinant KAT6A/MOZ (488-778) protein (Homo sapiens (Human), UniProt Q92794). Kind of test: KAT6A AlphaLISA Inhibition Screening Assay. Conditions: for inhibition at 1 µM: read-out: Average Kat6A % inhibition @ 1 μM, 1 μM test compound; for inhibition at 10 µM: read-out: Average Kat6A % inhibition @ 10 μM, 10 μM test compound. It counts as biochemical. In outline:
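25 nM KAT6A (488-778) pre-incubated 60 or 10 min with compound (10-point, 3-fold from 10 μM), then 400 nM acetyl-CoA and 200 nM biotin-H3(1-21) peptide added for 120 min at RT in pH 8.0 Tris buffer with 330 nM TSA. Acetylation read by AlphaLISA (anti-acetyl-lysine acceptor/streptavidin donor beads); % inhibition vs vehicle.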

Sequence of Recombinant KAT6A/MOZ (488-778) protein (Q92794 488-778): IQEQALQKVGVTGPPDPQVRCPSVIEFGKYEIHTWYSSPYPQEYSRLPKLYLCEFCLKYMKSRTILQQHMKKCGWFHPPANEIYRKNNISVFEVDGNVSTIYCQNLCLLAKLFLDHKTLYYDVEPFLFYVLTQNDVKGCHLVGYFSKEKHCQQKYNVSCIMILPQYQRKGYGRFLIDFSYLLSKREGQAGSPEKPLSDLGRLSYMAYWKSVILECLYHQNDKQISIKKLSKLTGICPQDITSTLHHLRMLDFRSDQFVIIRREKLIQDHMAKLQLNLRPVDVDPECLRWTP

Turning to `C#CCOc1ccc(CC)cc1S(=O)(=O)Nc1noc2cc(Cn3cc(CNC(=O)OC)cn3)cc(OC)c12` [Syn. Ex. 128, methyl ((1-((3-((5-ethyl-2-(prop-2-yn-1-yloxy)phenyl)sulfonamido)-4-methoxybenzo[d]isoxazol-6-yl)methyl)-1H-pyrazol-4-yl)methyl)carbamate], the inhibition (commonly the change of the read-out against control, counted positive when it falls) at 1 µM was 101% and the inhibition at 10 µM came out at 100%.
The corresponding values for `CCc1ccc(OCc2ccccc2)c(S(=O)(=O)Nc2noc3cc(Cn4cc(CNC(=O)OC)cn4)cc(OC)c23)c1` [Syn. Ex. 93, methyl ((1-((3-((2-(benzyloxy)-5-ethylphenyl)sulfonamido)-4-methoxybenzo[d]isoxazol-6-yl)methyl)-1H-pyrazol-4-yl)methyl)carbamate] are 90% and 98%.
As for `C#CC(=O)NCc1ccc(Oc2cc(OC)c3c(NS(=O)(=O)c4cc(CC)ccc4OC)noc3c2)nc1` [Syn. Ex. 61, N-((6-((3-((5-ethyl-2-methoxyphenyl)sulfonamido)-4-methoxybenzo[d]isoxazol-6-yl)oxy)pyridin-3-yl)methyl)propiolamide], the inhibition at 1 µM amounted to 60% and the inhibition at 10 µM is 100%.
Take `CCc1ccc(OC)c(S(=O)(=O)Nc2noc3cc(Oc4nc(CNC(=O)OC)cs4)cc(OC)c23)c1` [Syn. Ex. 104, methyl ((2-((3-((5-ethyl-2-methoxyphenyl)sulfonamido)-4-methoxybenzo[d]isoxazol-6-yl)oxy)thiazol-4-yl)methyl)carbamate]: the inhibition at 1 µM turned out to be 25% and the inhibition at 10 µM worked out at 92%.
With `CCc1ccc(OC)c(S(=O)(=O)Nc2noc3cc(Cn4cc(CNC(=O)OCCO)cn4)cc(OC)c23)c1` [Syn. Ex. 34, 2-hydroxyethyl ((1-((3-((5-ethyl-2-methoxyphenyl)sulfonamido)-4-methoxybenzo[d]isoxazol-6-yl)methyl)-1H-pyrazol-4-yl)methyl)carbamate], the inhibition at 1 µM came out at 86% and the inhibition at 10 µM is 100%.
The corresponding values for `CCc1ccc(OCc2nn[nH]n2)c(S(=O)(=O)Nc2noc3cc(Cn4cc(CNC(=O)OC)cn4)cc(OC)c23)c1` [Syn. Ex. 71, methyl ((1-((3-((2-((2H-tetrazol-5-yl)methoxy)-5-ethylphenyl)sulfonamido)-4-methoxybenzo[d]isoxazol-6-yl)methyl)-1H-pyrazol-4-yl)methyl)carbamate] are 100% and 100%.
The like results for `CCc1ccc(OCc2nc[nH]n2)c(S(=O)(=O)Nc2noc3cc(Cn4cc(CNC(=O)OC)cn4)cc(OC)c23)c1` [Syn. Ex. 117, methyl ((1-((3-((2-((1H-1,2,4-triazol-3-yl)methoxy)-5-ethylphenyl)sulfonamido)-4-methoxybenzo[d]isoxazol-6-yl)methyl)-1H-pyrazol-4-yl)methyl)carbamate] were, in that order, 100% and 100%.
The like results for `C=C(F)C(=O)NCc1cnn(Cc2cc(OC)c3c(NS(=O)(=O)c4cc(C(C)C)ccc4OC)noc3c2)c1` [Syn. Ex. 59, 2-fluoro-N-((1-((3-((5-isopropyl-2-methoxyphenyl)sulfonamido)-4-methoxybenzo[d]isoxazol-6-yl)methyl)-1H-pyrazol-4-yl)methyl)acrylamide] were, in that order, 100% and 100%.
As to `C#CC(=O)N1Cc2cnn(Cc3cc(OC)c4c(NS(=O)(=O)c5cc(OC)ccc5OC)noc4c3)c2C1` [Syn. Ex. 4, 2,5-dimethoxy-N-(4-methoxy-6-((5-propioloyl-5,6-dihydropyrrolo[3,4-c]pyrazol-1(4H)-yl)methyl)benzo[d]isoxazol-3-yl)benzenesulfonamide], the inhibition at 1 µM turned out to be 100% and the inhibition at 10 µM was determined as 100%.
Regarding `CCc1ccc(OC)c(S(=O)(=O)Nc2noc3cc(Cn4cc(CNC(=O)OC)cn4)c(F)c(OC)c23)c1` [Syn. Ex. 141, methyl ((1-((3-((5-ethyl-2-methoxyphenyl)sulfonamido)-5-fluoro-4-methoxybenzo[d]isoxazol-6-yl)methyl)-1H-pyrazol-4-yl)methyl)carbamate], the inhibition at 1 µM amounted to 104% and the inhibition at 10 µM came to 91%.
Take `CCc1ccc(S(=O)(=O)Nc2noc3cc(Cn4cc(CNC(=O)OC)cn4)cc(OC)c23)c(OC)c1` [Syn. Ex. 125, methyl ((1-((3-((4-ethyl-2-methoxyphenyl)sulfonamido)-4-methoxybenzo[d]isoxazol-6-yl)methyl)-1H-pyrazol-4-yl)methyl)carbamate]: the inhibition at 1 µM is 100% and the inhibition at 10 µM was 101%.
The like results for `C=C(F)C(=O)NCc1cnn(Cc2cc(OC)c3c(NS(=O)(=O)c4cc(CC)ccc4OCC#N)noc3c2)c1` [Syn. Ex. 43, N-((1-((3-((2-(cyanomethoxy)-5-ethylphenyl)sulfonamido)-4-methoxybenzo[d]isoxazol-6-yl)methyl)-1H-pyrazol-4-yl)methyl)-2-fluoroacrylamide] were, in that order, 96% and 98%.
The like results for `C#CC(=O)N1Cc2cnn(Cc3cc(OC)c4c(NS(=O)(=O)c5cc(Cl)ccc5OC)noc4c3)c2C1` [Syn. Ex. 1, 5-chloro-2-methoxy-N-(4-methoxy-6-((5-propioloyl-5,6-dihydropyrrolo[3,4-c]pyrazol-1(4H)-yl)methyl)benzo[d]isoxazol-3-yl)benzenesulfonamide] were, in that order, 100% and 100%.
With `CCc1ccc(OCc2ccnc(OC)c2)c(S(=O)(=O)Nc2noc3cc(Cn4cc(CNC(=O)OC)cn4)cc(OC)c23)c1` [Syn. Ex. 95, methyl ((1-((3-((5-ethyl-2-((2-methoxypyridin-4-yl)methoxy)phenyl)sulfonamido)-4-methoxybenzo[d]isoxazol-6-yl)methyl)-1H-pyrazol-4-yl)methyl)carbamate], the inhibition at 1 µM stood at 100% and the inhibition at 10 µM came to 100%.
`C=C(F)C(=O)NCc1cnn(Cc2cc(OC)c3c(NS(=O)(=O)c4cc(CC)ccc4OCCO)noc3c2)c1` [Syn. Ex. 113, N-((1-((3-((5-ethyl-2-(2-hydroxyethoxy)phenyl)sulfonamido)-4-methoxybenzo[d]isoxazol-6-yl)methyl)-1H-pyrazol-4-yl)methyl)-2-fluoroacrylamide]: the inhibition at 1 µM worked out at 98% and the inhibition at 10 µM was 100%.
Consider `C=C(F)C(=O)NCc1cnn(Cc2cc(OC)c3c(NS(=O)(=O)c4cc(C)ccc4OC)noc3c2)c1` [Syn. Ex. 89, 2-fluoro-N-((1-((4-methoxy-3-((2-methoxy-5-methylphenyl)sulfonamido)benzo[d]isoxazol-6-yl)methyl)-1H-pyrazol-4-yl)methyl)acrylamide], for which the inhibition at 1 µM was determined as 100% and the inhibition at 10 µM amounted to 100%.
Turning to `CC#CC(=O)N1Cc2cn(Cc3cc(OC)c4c(NS(=O)(=O)c5cc(CC)ccc5OC)noc4c3)nc2C1` [Syn. Ex. 12, N-(6-((5-(but-2-ynoyl)-5,6-dihydropyrrolo[3,4-c]pyrazol-2(4H)-yl)methyl)-4-methoxybenzo[d]isoxazol-3-yl)-5-ethyl-2-methoxybenzenesulfonamide], the inhibition at 1 µM turned out to be 38% and the inhibition at 10 µM was determined as 97%.
The corresponding values for `CCc1ccc(OC)c(S(=O)(=O)Nc2noc3cc(Cn4cc(CNC(=O)[C@H](C)F)cn4)cc(OC)c23)c1` (single isomer, unassigned) [Syn. Ex. 47b] are 96% and 100%.
